# Where a name gives a salt, the structure may show the parent alone.
# Target: human α7 nAChR (Homo sapiens, UniProt P36544)
# Experiment: not given
# Settings: reference compound in the above described human α7 nAChR binding assay provided by Cerep
# Chain of human α7 nAChR (P36544 23-502): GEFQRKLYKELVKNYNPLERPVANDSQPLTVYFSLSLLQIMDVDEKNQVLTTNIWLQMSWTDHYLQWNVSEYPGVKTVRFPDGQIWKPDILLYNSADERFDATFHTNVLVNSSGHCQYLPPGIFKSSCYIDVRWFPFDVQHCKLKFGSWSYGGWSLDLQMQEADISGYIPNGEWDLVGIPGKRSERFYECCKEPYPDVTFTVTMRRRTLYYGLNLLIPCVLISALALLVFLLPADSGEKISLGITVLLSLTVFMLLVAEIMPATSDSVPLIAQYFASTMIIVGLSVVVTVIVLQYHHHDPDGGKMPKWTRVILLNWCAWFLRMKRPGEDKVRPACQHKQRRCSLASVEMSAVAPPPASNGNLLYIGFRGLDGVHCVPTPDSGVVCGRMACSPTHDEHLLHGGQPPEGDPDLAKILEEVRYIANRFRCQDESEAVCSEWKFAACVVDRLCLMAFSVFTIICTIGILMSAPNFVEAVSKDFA
row,Compound,Ki
1,Cc1ccc(-c2ccc(OC3CN4CCC3CC4)cn2)cc1 (stereo not shown) [AQW051],0.255 µM

# Target: recombinantly expressed human α7-nAChR (Homo sapiens, UniProt P36544)
# Experiment: not given
# Settings: literature value, [125I] α-BTX radioligand, read-out: Ki (lit); cited from earlier work
# Chain of recombinantly expressed human α7-nAChR (P36544 23-502): as above
row,Compound,Ki
1,Cc1ccc(-c2ccc(OC3CN4CCC3CC4)cn2)cc1 (stereo not shown) [AQW051],0.028 µM

# Target: T1, human 5-HT3 serotonin receptors (Homo sapiens, UniProt P46098)
# T1 sequence (P46098 24-478): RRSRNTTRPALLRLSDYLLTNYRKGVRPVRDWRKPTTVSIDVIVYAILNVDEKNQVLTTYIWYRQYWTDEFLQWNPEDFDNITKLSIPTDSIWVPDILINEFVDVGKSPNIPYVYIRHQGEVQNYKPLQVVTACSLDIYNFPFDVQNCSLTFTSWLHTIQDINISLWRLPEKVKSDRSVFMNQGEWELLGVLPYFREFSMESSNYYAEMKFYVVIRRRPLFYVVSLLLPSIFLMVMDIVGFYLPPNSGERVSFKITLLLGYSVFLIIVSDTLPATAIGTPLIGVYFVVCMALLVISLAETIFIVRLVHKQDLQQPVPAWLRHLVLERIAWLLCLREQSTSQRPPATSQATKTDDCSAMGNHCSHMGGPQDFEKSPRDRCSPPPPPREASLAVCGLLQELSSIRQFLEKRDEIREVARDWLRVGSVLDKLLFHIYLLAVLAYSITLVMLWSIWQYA
# Experiment: biochemical
# Format: binding
# Settings: not given
row,Compound,Ki
1,"Clc1coc2cc(NC3=NO[C@@]4(C3)CN3CCC4CC3)ccc12 [(R)-73-1, (R)—N-(3-chlorobenzofuran-6-yl)-4H-1′-azaspiro[isoxazole-5,3′-bicyclo[2.2.2]octan]-3-amine hydrochloride]",4.9 µM
2,"c1ccc(NC2=NOC3(C2)CN2CCC3CC2)cc1 (single isomer, unassigned) [Compound 1-P1, N-phenyl-4H-1′-azaspiro[isoxazole-5,3′-bicyclo[2.2.2]octan]-3-amine]",0.0084 µM
3,"Clc1ccc(NC2=NOC3(C2)CN2CCC3CC2)cc1 (single isomer, unassigned) [Compound 20-P1, N-(4-chlorophenyl)-4H-1′-azaspiro[isoxazole-5,3′-bicyclo[2.2.2]octan]-3-amine]",0.069 µM

# Same assay, conditions: CHO cell membranes expressing human 5-HT3 receptors, [3H]BRL 43694, 120 min at room temperature; read-out: h-5HT3 Ki
row,Compound,Ki
1,"Cc1ccc2nc(NC3=NO[C@@]4(C3)CN3CCC4CC3)ncc2c1 [(R)-70, (R)—N-(6-methylquinazolin-2-yl)spiro[4H-isoxazole-5,3^1-quinuclidine]-3-amine]",> 10 µM
2,"Fc1ccc2cc(NC3=NO[C@@]4(C3)CN3CCC4CC3)ncc2c1 [(R)-44, (R)—N-(7-fluoroisoquinolin-3-yl)-4H-F-azaspiro[isoxazole-5,3^1-bicyclo[2.2.2]octan]-3-amine hydrochloride]",> 10 µM
3,"Clc1ccc2cnc(NC3=NO[C@@]4(C3)CN3CCC4CC3)nc2c1 [(R)-49, (R)—N-(7-chloroquinazolin-2-yl)-4H-1′-azaspiro[isoxazole-5,3′-bicyclo[2.2.2]octan]-3-amine]",> 10 µM
4,"Cc1ccc2cnc(NC3=NO[C@@]4(C3)CN3CCC4CC3)nc2c1 [(R)-71, (R)—N-(7-methylquinazolin-2-yl)-4H-1′-azaspiro[isoxazole-5,3′-bicyclo[2.2.2]octan]-3-amine hydrochloride]",6.4 µM
5,"Clc1csc2cc(NC3=NO[C@@]4(C3)CN3CCC4CC3)ccc12 [(R)-76, (R)—N -(3-chlorobenzo[b]thiophen-6-yl)-4H-1′-azaspiro[isoxazole-5,3′-bicyclo[2.2.2]octan]-3-amine hydrochloride]",2.8 µM
6,"Cc1cc2cnc(NC3=NO[C@@]4(C3)CN3CCC4CC3)nc2o1 [(R)-75, (R)—N-(6-methylfuro[2,3-d]pyrimidin-2-yl)spiro[4H-isoxazole-5,3′-quinuclidine]-3-amine hydrochloride]",> 10 µM
7,"Clc1ccc2cnc(NC3=NO[C@@]4(C3)CN3CCC4CC3)cc2c1 [(R)-18, (R)—N-(6-chloroisoquinolin-3-yl)-4H-1′-azaspiroksoxazole-5,3^1-bicyclo[2.2.2]octan1-3-amine hydrochloride]",> 10 µM
8,"c1ccc2oc(NC3=NOC4(C3)CN3CCC4CC3)nc2c1 (single isomer, unassigned) [Compound 13-P1, N-(benzo[d]oxazol-2-yl)-4H-1′-azaspiro[isoxazole-5,3′-bicyclo[2.2.2]octan]-3-amine]",2.4 µM

# Source: US20170247393A1, “Aminoisoxazoline Compounds as Agonists of Alpha7-Nicotinic Acetylcholine Receptors” (Forum Pharmaceuticals, Inc., priority 2015, published 2017)
